In patent publication US7442683B2, “Cyclic peptide” (Takara Bio Inc., priority 2001, dated 2008):
Like-named read-outs stand apart in the source and are kept apart here.

Key:
Assay type in all cases: cell-based
[1] = system: Aspergillus fumigatus TIMM1776
Description: (§1) The antifungal activities of the compounds synthesized in Examples 1 and 3 to 7 were measured by a liquid medium dilution method. Candida albicans TIMM0136, Cryptococcus neoformans TIMM0354 or Aspergillus fumigatus TIMM1776 was inoculated into a medium containing one of the compounds diluted serially, and cultured at 30° C. for two days. […] For the measurements, a medium containing 0.67% Yeast Nitrogen Base (Difco) and 1.0% glucose (YNBG medium) was used for the cultures of Candida albicans and Cryptococcus neoformans, and a medium containing 0.5% Brain Heart Infusion Bouillon (Nissui) (BHI medium) was used for the culture of Aspergillus fumigatus.

[2] = system: Cryptococcus neoformans TIMM0354
Description: as §1

[3] = system: Candida albicans TIMM0136
Description: as §1

Row | MIC (μg/ml) A.f. ([1]; Aspergillus fumigatus TIMM1776, BHI medium, 30° C., two days, growth almost completely inhibited) | MIC (μg/ml) C.n. [2] | MIC (μg/ml) A.f. ([1]; TIMM1776) | MIC (μg/ml) C.a. [3] | Structure (SMILES)
1 | 1.56 µg/mL |  |  |  | CCCCCCCCCCCCCC1CC(=O)N[C@@H](C)C(=O)N[C@@H](CCCN)C(=O)NCCC(=O)N[C@@H](CO)C(=O)N[C@@H](CO)C(=O)N[C@H](CC(N)=O)C(=O)N[C@H]([C@@H](C)O)C(=O)NCC(=O)O1 (mixture of isomers) [Compound 1, cyclo(-L-Ala-L-Orn-β-Ala-L-Ser-L-Ser-D-Asn-D-allo-Thr-Gly-(±) -Hhd-)]
2 |  | 3.12 µg/mL |  | 12.5 µg/mL | CCCCCCCCCCCCCC1CC(=O)N[C@@H](C)C(=O)N[C@@H](CCCN)C(=O)NCC(=O)N[C@@H](CO)C(=O)N[C@@H](CO)C(=O)N[C@H](CC(N)=O)C(=O)N[C@H]([C@@H](C)O)C(=O)NCC(=O)O1 (mixture of isomers) [Compound 6, cyclo(-L-Ala-L-Orn-Gly-L-Ser-L-Ser-D-Asn-D-allo-Thr-Gly-(±)-Hhd-)]
3 |  | 3.12 µg/mL | 0.78 µg/mL | 6.25 µg/mL | CCCCCCCCCCCCCC1CC(=O)N[C@@H](C)C(=O)N[C@@H](CCCN)C(=O)N[C@@H](CO)C(=O)N[C@@H](CO)C(=O)N[C@@H](CO)C(=O)N[C@H](CC(N)=O)C(=O)N[C@H]([C@@H](C)O)C(=O)NCC(=O)O1 (mixture of isomers) [Compound 7, cyclo(-L-Ala-L-Orn-L-Ser-L-Ser-L-Ser-D-Asn-D-allo-Thr-Gly-(±)-Hhd-)]

Further lines, the molecule ahead of its results:

Row | Structure (SMILES) | MIC (μg/ml) A.f. ([1]; Aspergillus fumigatus TIMM1776, BHI medium, 30° C., two days, growth almost completely inhibited) | MIC (μg/ml) C.n. [2] | MIC (μg/ml) A.f. ([1]; TIMM1776) | MIC (μg/ml) C.a. [3]
4 | CCCCCCCCCCCCCC1CC(=O)N[C@@H](C)C(=O)N[C@@H](CCCN)C(=O)N[C@@H](CC(N)=O)C(=O)N[C@@H](CO)C(=O)N[C@@H](CO)C(=O)N[C@H](CC(N)=O)C(=O)N[C@H]([C@@H](C)O)C(=O)NCC(=O)O1 (mixture of isomers) [Compound 3, cyclo(-L-Ala-L-Orn-L-Asn-L-Ser-L-Ser-D-Asn-D-allo-Thr-Gly-(±)-Hhd-)] |  | 3.12 µg/mL | 1.56 µg/mL | 6.25 µg/mL
5 | CCCCCCCCCCCCCC1CC(=O)N[C@@H](C)C(=O)N[C@@H](CCCN)C(=O)N[C@@H](CC(=O)O)C(=O)N[C@@H](CO)C(=O)N[C@@H](CO)C(=O)N[C@H](CC(N)=O)C(=O)N[C@H]([C@@H](C)O)C(=O)NCC(=O)O1 (mixture of isomers) [Compound 4, cyclo(-L-Ala-L-Orn-L-Asp-L-Ser-L-Ser-D-Asn-D-allo-Thr-Gly-(±)-Hhd-)] |  | 6.25 µg/mL |  | 6.25 µg/mL
6 | CCCCCCCCCCCCCC1CC(=O)N[C@@H](C)C(=O)N[C@@H](CCCN)C(=O)N[C@@H](CCC(=O)O)C(=O)N[C@@H](CO)C(=O)N[C@@H](CO)C(=O)N[C@H](CC(N)=O)C(=O)N[C@H]([C@@H](C)O)C(=O)NCC(=O)O1 (mixture of isomers) [Compound 5, cyclo(-L-Ala-L-Orn-L-Glu-L-Ser-L-Ser-D-Asn-D-allo-Thr-Gly-(±)-Hhd-)] |  | 6.25 µg/mL | 0.39 µg/mL | 3.12 µg/mL
7 | CCCCCCCCCCCCCC1CC(=O)N[C@@H](C)C(=O)N[C@@H](CCCN)C(=O)NCCC(=O)N[C@@H](CO)C(=O)N[C@@H](CO)C(=O)N[C@H](CC(N)=O)C(=O)N[C@H]([C@H](C)O)C(=O)NCC(=O)O1 (stereo partly drawn) [AA^7:D-Thr-substituted analog] |  | > 200 µg/mL | > 200 µg/mL | > 200 µg/mL
8 | CCCCCCCCCCCCCC1CC(=O)N[C@@H](C)C(=O)N[C@@H](CCCN)C(=O)NCCC(=O)N[C@@H](CO)C(=O)N[C@@H](CO)C(=O)N[C@H](CC(N)=O)C(=O)N[C@@H]([C@@H](C)O)C(=O)NCC(=O)O1 (stereo partly drawn) [AA^7:L-Thr-substituted analog] |  | > 200 µg/mL | > 200 µg/mL | > 200 µg/mL
